In ChEMBL document CHEMBL2202954, “The effect of PLC-γ2 inhibitors on the growth of human tumour cells” (2012):

Key:
Format in all cases: functional
SK-MEL-5 = assay: Cytotoxicity against human SK-MEL-5 cells assessed as cellular growth at 10 uM by SRB assay
CAKI-1 = assay: Cytotoxicity against human Caki1 cells assessed as cellular growth at 10 uM by SRB assay
DU-145 = assay: Cytotoxicity against human DU145 cells assessed as cellular growth at 10 uM by SRB assay
NCI-H23 = assay: Cytotoxicity against human NCI-H23 cells assessed as cellular growth at 10 uM by SRB assay
EKVX = assay: Cytotoxicity against human EKVX cells assessed as cellular growth at 10 uM by SRB assay
M14 = assay: Cytotoxicity against human M14 cells assessed as cellular growth at 10 uM by SRB assay
SK-MEL-28 = assay: Cytotoxicity against human SK-MEL-28 cells assessed as cellular growth at 10 uM by SRB assay
MOLT-4 = assay: Cytotoxicity against human MOLT4 cells assessed as cellular growth at 10 uM by SRB assay
HCT-116 = assay: Cytotoxicity against human HCT116 cells assessed as cellular growth at 10 uM by SRB assay
SK-OV-3 = assay: Cytotoxicity against human SKOV3 cells assessed as cellular growth at 10 uM by SRB assay
HCC 2998 = assay: Cytotoxicity against human HCC2998 cells assessed as cellular growth at 10 uM by SRB assay
MDA-MB-231 = assay: Cytotoxicity against human MDA-MB-231 cells assessed as cellular growth at 10 uM by SRB assay
CCRF-CEM = assay: Cytotoxicity against human CCRF-CEM cells assessed as cellular growth at 10 uM by SRB assay
[1] = Cytotoxicity against human NCI-ADR-RES cells assessed as cellular growth at 10 uM by SRB assay
RXF 393 = assay: Cytotoxicity against human RXF393 cells assessed as cellular growth at 10 uM by SRB assay
MCF7 = assay: Cytotoxicity against human MCF7 cells assessed as cellular growth at 10 uM by SRB assay
T47D = assay: Cytotoxicity against human T47D cells assessed as cellular growth at 10 uM by SRB assay
SF-295 = assay: Cytotoxicity against human SF295 cells assessed as cellular growth at 10 uM by SRB assay
SF-539 = assay: Cytotoxicity against human SF539 cells assessed as cellular growth at 10 uM by SRB assay
Hs-578T = assay: Cytotoxicity against human Hs578T cells assessed as cellular growth at 10 uM by SRB assay

Structure (SMILES) | Activity (SK-MEL-5) [%] | Activity (CAKI-1) [%] | Activity (DU-145) [%] | Activity (NCI-H23) [%] | Activity (EKVX) [%] | Activity (M14) [%] | Activity (SK-MEL-28) [%] | Activity (MOLT-4) [%] | Activity (HCT-116) [%] | Activity (SK-OV-3) [%] | Activity (HCC 2998) [%] | Activity (MDA-MB-231) [%] | Activity (CCRF-CEM) [%] | Activity [1] [%] | Activity (RXF 393) [%] | Activity (MCF7) [%] | Activity (T47D) [%] | Activity (SF-295) [%] | Activity (SF-539) [%] | Activity (Hs-578T) [%]
c1ccc(-c2nc(-c3cccs3)no2)cc1 | 97.58 | 100.18 | 103.67 | 93.94 | 102.25 | 111.09 | 117.87 | 92.81 | 104.23 | 106.03 | 117.01 | 77.5 | 97.84 | 116.69 | 122.84 | 52.58 | 65.5 | 128.58 | 105.74 | 100.69
COc1ccc(Cl)cc1C(=O)Nc1nc2ccc(Cl)cc2s1 | 92.79 | 84.36 | 94.89 | 90.46 | 76.23 | 95.14 | 105.02 | 95.65 | 53.23 | 91.86 | 102.29 | 70.89 | 86.4 | 101.67 | 95.02 | 41.75 | 47.23 | 169.8 | 86.39 | 102.47
O=C(Nc1nc2ccc(Cl)cc2s1)c1ccc(Cl)cc1 | 94.67 | 81.52 | 114.57 | 91.71 | 94 | 106.22 | 109.14 | 95.76 | 98.42 | 89.31 | 106.96 | 98.56 | 96.23 | 100.28 | 111.55 | 99.61 | 93.28 | 87.02 | 88.34 | 98.57
O=C(Nc1nc2ccc(Cl)cc2s1)c1ccc(Cl)cc1Cl | 89.76 | 79.85 | 108.4 | 99 | 82.69 | 115.13 | 107.5 | 93.88 | 105.32 | 105.26 | 97.08 | 114.66 | 99.34 | 98.55 | 112.15 | 98.4 | 95.96 | 76.92 | 101.57 | 113.99
COc1cccc(C(=O)Nc2nc3ccc(Cl)cc3s2)c1 | 81.61 | 68.42 | 104.09 | 81.36 | 81.47 | 102.54 | 101.98 | 83.68 | 92.95 | 90.86 | 93.56 | 95.48 | 81.01 | 75.07 | 102.21 | 85.29 | 79.7 | 67.73 | 101.47 | 110.55
Cc1ccc(S(=O)(=O)Oc2ccc(-c3cnc4ccccc4n3)cc2)cc1 | 84.98 | 92.87 | 114.58 | 96.23 | 98.5 | 123.34 | 113.2 | 89.3 | 106.69 | 104.03 | 102.2 | 111.87 | 96.08 | 101.39 | 103.74 | 98.34 | 87.98 | 89.7 | 113.49 | 110.2
O=C(Nc1ccc2oc(=O)ccc2c1)c1ccc(-c2ccc(Cl)c(Cl)c2)o1 | 87.91 | 87.9 | 92.43 | 97.86 | 94.26 | 100.99 | 101.23 | 73.02 | 57.64 | 107.01 | 100.84 | 86.89 | 57.99 | 78.15 | 98.99 | 86.24 | 81.58 | 102.01 | 90.55 | 145.42
O=S(=O)(Oc1ccc(-c2cnc3ccccc3n2)cc1)c1ccccc1 | 92.11 | 100.14 | 107.72 | 96.29 | 93.17 | 106.54 | 110.13 | 75.6 | 94.15 | 106.76 | 99.83 | 105.17 | 85.64 | 96.02 | 102.24 | 94.53 | 86.45 | 94.02 | 94.38 | 145.79
O=C(Nc1ccc(S(=O)(=O)Nc2nccs2)cc1)c1cccs1 | 107.39 | 99.02 | 114.06 | 108.72 | 97.85 | 110.69 | 115.4 | 95.09 | 108.46 | 117.21 | 108.36 | 103.15 | 89.52 | 120.26 | 110.47 | 103.71 | 105.19 | 140.51 | 105.81 | 122.2
